Assays:
Type in all cases: cell-based
[1] = molecular target: T1, human M2 muscarinic receptors co-expressed with hTRPM3_1325 V990M (Homo sapiens, UniProt P08172); test: M2 muscarinic receptor inhibition of TRPM3 currents, oocytes, V990M mutant; settings: 5 μM ACh, 100 mV
T1 construct: expressed in transfected cells; host or cells: Xenopus laevis oocytes (cRNA injection)
T1 sequence (P08172 1-466): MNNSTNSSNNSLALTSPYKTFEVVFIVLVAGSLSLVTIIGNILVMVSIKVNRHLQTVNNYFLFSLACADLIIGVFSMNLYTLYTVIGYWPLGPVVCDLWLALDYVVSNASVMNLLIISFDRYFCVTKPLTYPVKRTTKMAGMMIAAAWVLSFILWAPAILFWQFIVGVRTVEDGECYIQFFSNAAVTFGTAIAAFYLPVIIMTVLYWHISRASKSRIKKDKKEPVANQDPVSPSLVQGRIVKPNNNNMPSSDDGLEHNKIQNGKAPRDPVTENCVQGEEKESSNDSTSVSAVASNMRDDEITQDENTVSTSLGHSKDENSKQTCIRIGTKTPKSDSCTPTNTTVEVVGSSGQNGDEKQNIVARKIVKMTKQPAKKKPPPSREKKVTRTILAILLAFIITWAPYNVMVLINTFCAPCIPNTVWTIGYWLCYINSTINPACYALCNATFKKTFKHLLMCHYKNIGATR
Description: (§1) Xenopus laevis oocytes were prepared as described earlier ([Badheka et al., 2015]). All animal procedures were approved by the Institutional Animal Care and Use Committee at Rutgers New Jersey Medical School. In brief, frogs were anesthetized in 0.25% ethyl 3-aminobenzoate methanesulfonate solution (MS222; Sigma-Aldrich); bags of ovaries were removed surgically from the anesthetized frogs. Individual oocytes were obtained by overnight digestion at 16°C in 0.2–0.3 mg/ml type 1A collagenase (Sigma-Aldrich), dissolved in a solution containing 82.5 mM NaCl, 2 mM KCl, 1 mM MgCl2, and […] HEPES, pH 7.4 (OR2 solution). The next day the collagenase containing solution was discarded and the oocytes were washed multiple times with OR2 solution. The oocytes were maintained in OR2 solution supplemented with 1.8 mM CaCl2, 100 IU/ml penicillin, and 100 μg/ml streptomycin at 16°C. cRNA was transcribed from the linearized human TRPM3 (hTRPM3) cDNA clone ([Grimm et al., 2003]), or its mutants in the pGEMSH vector using the mMessage mMachine kit (Thermo Fisher Scientific). cRNA (40 ng) was microinjected into individual oocytes, using a nanoliter-injector system (Warner Instruments). For combined injection of wild-type and mutant TRPM3 for Figures 4E–G, […] total cRNA was injected in a 1:1 ratio. […]

[2] = molecular target: T2, human M2 muscarinic receptors co-expressed with wild-type hTRPM3_1325 (Homo sapiens, UniProt P08172); test: M2 muscarinic receptor inhibition of TRPM3 currents, oocytes, wild type channel; settings: read-out: Inhibition of TRPM3 currents induced by 50 μM PregS
T2 construct: expressed in transfected cells; host or cells: Xenopus laevis oocytes (cRNA injection)
T2 sequence (P08172 1-466): T1 sequence (P08172 1-466)
Description: as §1

hTRPM3α2 P1092Q = molecular target: T3, hTRPM3α2 P1092Q (Homo sapiens, UniProt Q9HCF6, P1115Q); test: Intracellular Ca2+ assay (GCaMP6f) in 96-well plates, HEK293 cells, P1092Q mutant; settings: very high basal Ca2+ levels
T3 construct: host or cells: HEK293
T3 sequence (Q9HCF6 1-1709 isoform Q9HCF6-5 P1092Q): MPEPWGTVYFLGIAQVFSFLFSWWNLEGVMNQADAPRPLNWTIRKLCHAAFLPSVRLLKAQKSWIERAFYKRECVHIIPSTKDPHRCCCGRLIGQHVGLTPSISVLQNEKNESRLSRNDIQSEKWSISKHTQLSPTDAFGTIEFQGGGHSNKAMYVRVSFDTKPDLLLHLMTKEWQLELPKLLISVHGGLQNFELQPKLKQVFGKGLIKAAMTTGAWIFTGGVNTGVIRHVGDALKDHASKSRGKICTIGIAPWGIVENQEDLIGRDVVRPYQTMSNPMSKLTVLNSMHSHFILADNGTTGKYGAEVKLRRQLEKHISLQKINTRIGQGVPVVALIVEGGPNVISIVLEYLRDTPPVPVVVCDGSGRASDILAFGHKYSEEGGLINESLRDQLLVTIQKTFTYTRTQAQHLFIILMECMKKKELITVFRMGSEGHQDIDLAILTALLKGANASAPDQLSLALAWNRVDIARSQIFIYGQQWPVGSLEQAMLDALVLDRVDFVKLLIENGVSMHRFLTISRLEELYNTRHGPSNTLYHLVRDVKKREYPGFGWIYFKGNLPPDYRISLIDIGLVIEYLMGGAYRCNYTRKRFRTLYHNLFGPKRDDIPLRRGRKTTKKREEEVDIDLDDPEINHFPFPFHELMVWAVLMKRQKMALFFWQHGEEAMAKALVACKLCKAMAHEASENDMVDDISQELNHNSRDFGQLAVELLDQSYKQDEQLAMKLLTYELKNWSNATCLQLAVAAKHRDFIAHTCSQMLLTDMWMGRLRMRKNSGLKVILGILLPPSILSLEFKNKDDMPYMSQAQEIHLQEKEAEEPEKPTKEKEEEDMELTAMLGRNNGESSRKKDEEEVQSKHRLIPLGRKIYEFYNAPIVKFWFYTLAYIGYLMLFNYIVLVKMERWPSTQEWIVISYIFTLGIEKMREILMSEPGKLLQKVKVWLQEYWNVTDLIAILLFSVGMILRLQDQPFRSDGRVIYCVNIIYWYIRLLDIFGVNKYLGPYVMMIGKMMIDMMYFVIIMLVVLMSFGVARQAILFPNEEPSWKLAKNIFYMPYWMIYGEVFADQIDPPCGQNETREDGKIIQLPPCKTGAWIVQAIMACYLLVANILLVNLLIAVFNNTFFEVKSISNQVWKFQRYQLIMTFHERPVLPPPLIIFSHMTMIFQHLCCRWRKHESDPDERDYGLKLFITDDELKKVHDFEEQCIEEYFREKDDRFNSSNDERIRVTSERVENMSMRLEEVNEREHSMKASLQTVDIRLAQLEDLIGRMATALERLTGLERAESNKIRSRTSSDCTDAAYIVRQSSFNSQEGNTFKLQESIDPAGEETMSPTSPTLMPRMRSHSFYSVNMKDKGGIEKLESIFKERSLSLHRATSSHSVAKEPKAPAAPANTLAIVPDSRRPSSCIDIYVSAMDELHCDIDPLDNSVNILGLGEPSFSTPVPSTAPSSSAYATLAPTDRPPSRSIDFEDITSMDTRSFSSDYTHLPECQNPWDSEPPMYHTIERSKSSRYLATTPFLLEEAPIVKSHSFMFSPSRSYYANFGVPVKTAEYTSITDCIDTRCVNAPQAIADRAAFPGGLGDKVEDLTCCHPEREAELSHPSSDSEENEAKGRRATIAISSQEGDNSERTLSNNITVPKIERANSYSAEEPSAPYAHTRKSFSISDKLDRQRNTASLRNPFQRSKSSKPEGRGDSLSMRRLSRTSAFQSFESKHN
Description: (§2) Intracellular Ca^2+ measurements were performed using a Flexstation-3 96‐well plate reader with rapid well injection (Molecular Devices) as described earlier ([Hughes et al., 2019]) with some modifications. Briefly Human Embryonic Kidney 293 (HEK293) cells were purchased from American Type Culture Collection (ATCC), Manassas, VA, (catalogue number CRL-1573), RRID:CVCL_0045; cell identity was verified by STR analysis by ATCC. HEK293 cells were cultured in MEM supplemented with 10% FBS and 100 IU/ml penicillin plus 100 µg/ml streptomycin in 5% CO2 at 37°C. Additional cell authentication was not performed, but passage number of the cells was monitored, and cells were used up to passage number 25–30 from purchase, when a new batch of cells was thawed with low passage number; cells were tested for the lack of mycoplasma infection. HEK293 cells were transfected with hTRPM3α2-GFP, or its mutants (200 ng) and GCaMP6 (1 μg) using the Effectene reagent (Qiagen). […] GCaMP6 signal was measured at excitation wavelengths 485 nm and fluorescence emission was detected at 525 nm. Sampling interval was 0.86 s and four parallel reads were performed for each condition. […] For measurements at 37°C the MEM medium used to culture the cells was replaced with the measurement solution preheated to 37°C, and the plate was placed in the plate reader warmed to 37°C using its built-in temperature controller.

hTRPM3α2 V992M = molecular target: T4, hTRPM3α2 V992M (Homo sapiens, UniProt Q9HCF6, V1015M); test: Intracellular Ca2+ assay (GCaMP6f) in 96-well plates, HEK293 cells, V992M mutant; settings: very high basal Ca2+ levels
T4 construct: host or cells: HEK293
T4 sequence (Q9HCF6 1-1709 isoform Q9HCF6-5 V992M): as the sequence (Q9HCF6 1-1709 isoform Q9HCF6-5 P1092Q) above, with V992M, Q1092P counted along it
Description: as §2

Molecule: CC(=O)OCC[N+](C)(C)C [ACh, acetylcholine]
- Inhibition of TRPM3 currents induced by 50 μM PregS [1]: essentially not inhibited
- inhibition at 5 µM [2]: ~50%

Molecule: pregnenolone sulfate [PregS]
- Ca2+ response to agonist at 37°C (hTRPM3α2 P1092Q): not further increased
- Ca2+ response to agonist at 37°C (hTRPM3α2 V992M): not further increased
